{"source": "patent US9095537B2", "about": "“Therapy of cancer based on targeting adaptive, innate and/or regulatory component of the immune response” (priority 2006, dated 2015)", "key": {"[1]": {"test_system": "TC-1 cells", "type": "in vivo, C57BL/6 mice", "conditions": "for survival percentage: TLR ligand given i.v. with 50 ug CyaA-E7 on day 25, pU and CpGs complexed with DOTAP, survival on day 100; for effect on tumor growth of TLR ligand alone: TLR ligand alone without CyaA-E7, day 25; for tumor growth after CTX alone: CTX 2.5 mg i.p. alone, day 24; for mice that totally eradicated their tumors: low dose CTX (2.5 mg i.p.) day 24, 24 h before 50 ug CyaA-E7; for enhancement of the effect of CyaA-E7 by DOX: DOX day 24, intra-tumorally or intravenously, CyaA-E7 day 25; for increase in tumor regression: TLR ligand given with CyaA-E7 on day 25, versus CyaA-E7 alone", "procedure": "(§1) Specific pathogen-free 5-week-old female C57BL/6 mice were purchased from Charles River (L'Arbresle, France) and were kept in the Pasteur Institute animal facilities under pathogen-free conditions with water and food ad libitum. C57BL/6-RAG1^−/− mice were obtained from the Jackson Laboratory, USA. Experiments involving animals were conducted according to the institutional guidelines for animal care.\nTC-1 cells expressing HPV16-E6 and HPV16-E7 proteins derived from primary mouse lung epithelial cells were obtained from the American Type Culture Collection (LGC Promochem, Molsheim, France) (14). EL4-E7 cells, a mouse lymphoma expressing HPV16-E7 (15). Cells were maintained in RPMI 1640 with GlutaMAX supplemented with 10% heat-inactivated fetal calf serum, 100 units/ml penicillin, 100 μg/ml streptomycin, 0.4 mg/ml geneticin and 5×10^−5 mol/12-mercaptoethanol (Life Technologies, Cergy-Pontoise, France).\n(§2) Tumor cells lines (5×10^5 TC-1 cells or 4×10^6 EL4-E7 cells) were inoculated into the shaved left back of C57BL/6 mice in 200 μl volume of PBS. Tumor size, presented as the average of two perpendicular diameters (millimeters), was measured at regular intervals.\nCpG ODNs (Type A, CpG 2216: 5′-[…]-3′ (SEQ ID NO: 6); Type B, CpG 1826: 5′-[…]-3′ (SEQ ID NO: 7)) were synthesized by Proligo (Paris, France). Boldface nucleotides correspond to phosphorothioate backbone. Polyuridine (pU) was purchased from Sigma (Steinheim, Germany), R848 from PharmaTech (Shanghai, China) and polyinosinic-polycytidylic acid (PIC) from Invivogen (San Diego, Calif., USA). Thirty μg of CpG ODNs or pU were diluted in 50 μl of Optimen medium (Gibco, Grand Island, N.Y., USA) and mixed with 60 μg of DOTAP (Roche, Mannheim, Germany) diluted in 100 μl of Optimen. The rest of the reagents were diluted in PBS before injection. Cyclophosphamide (CTX) (Sigma, Steinheim, Germany) and doxorubicin (DOX) (Calbiochem, La Jolla, Calif., USA) were diluted respectively in PBS and in sterile water before injection. The different antigenic formulations and adjuvants were injected simultaneously except chemotherapeutic agents that were given 24 h before vaccine. Intravenous administrations were performed by retroorbital injection in a volume of 200 μl, intratumoral administrations were done by injection in a volume of 50 μl and subcutaneous administration were performed in 200 μl.\nTumor growth data were analyzed by non-linear mixed effect models using Monolix software (http://www.math.u-psud.fr/˜lavielle/monolix/). Mean diameters of tumors over time were fitted using the model described in (17) and treatments were compared using the Likelihood Ratio test. Kaplan-Meier plots were used to analyzed survival, and a log rank test was used to examine statistical significance of differences in the survival curves using Prism software (GraphPad Software, Inc. San Diego, USA). Data from in vivo CTL and tetramer staining were compared by ANOVA followed by Dunnett posttest. p values less than 0.05 were considered to be statistically significant."}, "[2]": {"test_system": "E749-57 peptide-pulsed splenocytes", "experiment": "In vivo killing assay (in vivo CTL)", "design": "species or system C57BL/6 mice", "conditions": "CTX 24 h before CyaA-E7, tumor-bearing mice day 25", "procedure": "FIG. 8. Analysis of tumor specific immune response in control and tumor-bearing mice after different treatments. […] Twenty-five days later, control and tumor-bearing mice were injected with either 50 μg of control CyaA or of CyaA-E7, with PBS or with 30 μg of CpG-B or pU/DOTAP, 25 μg of PIC, 50 μg of R848, 2.5 mg of CTX (24 h before) or with CTX and CpG-B/DOTAP. Percentage of CD8^+ tetramer^+ cells in control (A) and in tumor-bearing mice (B). At day 7 after treatment, mice were sacrificed and the percentage of tetramer positive cells was analyzed by flow cytometry. In vivo CTL in control (C) and in tumor-bearing mice (D). […] Twenty-four hours later, spleens were removed and single-cell suspensions were analyzed by flow cytometry to determine the ratio of CFSE^high to CFSE^low cells. […] In vivo cytolytic activity was low but detected (E and F).\nNaïve spleen cells were pulsed for 30 min with 9 μM E749-57 peptide at 37° C. […] Twenty-four hours later, spleens were removed and single-cells suspensions were analyzed by flow cytometry to determine the ratio of CFSE^high to CFSE^low cells. The percentage of specific lysis was calculated as follow: percent-specific lysis=100−(100×(% CFSE^highimmunized/% CFSE^low immunized)/(% CFSE^high control/% CFSE^low control))."}, "[3]": {"test_system": "TC-1 cells", "conditions": "CTX 2.5 mg i.p. day 24; log-rank p=0.22 vs PBS", "procedure": "as §1, §2"}, "[4]": {"test_system": "T regulatory cells, myeloid suppressor cells, tumor-specific CD8+ T cells and NK cells", "experiment": "Flow cytometric analysis of immune cells in spleen, draining lymph nodes and tumor after tritherapy", "type": "in vivo, C57BL/6 mice", "procedure": "FIG. 9. Changes in immune cells after tritherapy on day 25. […] Groups of mice were sacrificed before treatment (day 0), 24 hour after CTX alone (day 1) or on days 4, 7 or 11 after tritherapy administration. Spleen, tumor draining lymph nodes and tumor were excised, ground to prepare the cell suspensions, stained and analyzed by flow cytometry. Pooled data of two experiments are shown (n=4-6 mice). Bars represent mean values and the error bars correspond to standard error of the mean. *<0.05**<0.01. A) Percentage of CD4^+ cells that express CD25 and FoxP3. B) Percentage of CD4^+ cells that are CD25^− and FoxP3^+. C) Percentage of CD4^+ cells that express FoxP3. D) Percentage of CD8^+ cells that are tetramer^+ and CD44^+. E) Percentage of CD11c^+ cells. F) Percentage of CD11b^+ cells. G) Percentage of GR1^+ cells. H) Percentage of CD11b^+GR1^+ positive cells.\nFIG. 11. Phenotype of myeloid cells induced by tritherapy and by tumor growth. […] Tritherapy treated mice received on day 24, 2.5 mg CTX i.p and 24 h later, 50 μg CyaA-E7 and 30 μg CpG-B/DOTAP. PBS treated mice received 200 μl of PBS on day 25. […] Spleens were excised, ground to prepare the cell suspensions, stained and analyzed by flow cytometry. […]\nFACScalibur (Becton Dickinson, Franklin Lakes, N.J., USA) was used for flow cytometry and events were analyzed with CELLQuest software (Becton Dickinson, Franklin Lakes, N.J., USA)."}}, "note": "Where two headings read alike, the source gives them in different places."}
{"molecule": "5′-GGGGGACGATCGTCGGGGGG-3′ [CpG-A]", "values": [{"measurement": "survival percentage", "setting": "[1]", "result": 58, "unit": "%"}]}
{"molecule": "5′-TCCATGACGTTCCTGACGTT-3′ [CpG-B]", "values": [{"measurement": "effect on tumor growth of TLR ligand alone", "setting": "[1]", "result": "none of these TLR ligands administered alone had any effect on the tumor growth"}, {"measurement": "survival percentage", "setting": "[1]", "result": 50, "unit": "%"}]}
{"molecule": "O=P1(N(CCCl)CCCl)NCCCO1", "note": "(centres unmarked) [CTX, Cyclophosphamide]", "values": [{"measurement": "antitumor efficacy of combined CTX and CyaA-E7 at higher CTX dose", "setting": "[1]; 300 mg/kg versus 100 mg/kg CTX i.p. day 24, CyaA-E7 day 25, log-rank p=0.95", "result": "not improved"}, {"measurement": "tumor growth after CTX alone", "setting": "[1]", "result": "significantly delayed tumor growth but this effect was transient and was followed by tumor relapse"}, {"measurement": "tumor growth after CTX alone", "setting": "[1]; listed as cyclophosphamide", "result": "could transiently control tumor growth but was not able to induce the complete eradication"}, {"measurement": "tumor growth after CTX plus CyaA-E7", "setting": "[1]; low dose CTX 24 h before CyaA-E7, day 24/25", "result": "delayed growth of all tumors"}, {"measurement": "mice that totally eradicated their tumors", "setting": "[1]", "result": 58, "unit": "%"}, {"measurement": "mice that totally eradicated their tumors", "setting": "[1]; listed as cyclophosphamide", "result": "around 60%"}, {"measurement": "immune response induced by CyaA-E7", "setting": "[2]", "result": "did not enhance the immune response induced by CyaA-E7"}, {"measurement": "tumor growth delay by CTX alone in RAG1-/- mice", "setting": "[3]", "result": "not observed"}, {"measurement": "percentage of CD25+FoxP3+/CD4+ in tumor-infiltrated lymphocytes", "setting": "[4]; four days after administration of cyclophosphamide, from around 50%", "result": "below 30%"}, {"measurement": "lymphodepletion", "setting": "[4]; spleen and lymph node, tumor-bearing mice, CTX 2.5 mg i.p. day 24", "result": "transient lymphodepletion in spleen and lymph node that reverted by day 7"}]}
{"molecule": "COc1cccc2c1C(=O)c1c(O)c3c(c(O)c1C2=O)C[C@@](O)(C(=O)CO)C[C@@H]3O[C@H]1C[C@H](N)[C@H](O)[C@H](C)O1", "note": "[DOX, Doxorubicin]", "values": [{"measurement": "enhancement of the effect of CyaA-E7 by DOX", "setting": "[1]", "result": "did not enhance the effect of CyaA-E7"}, {"measurement": "enhancement of the effect of CyaA-E7 by DOX", "setting": "[1]; listed as doxorubicin", "result": "had no effect"}]}
{"molecule": "polyinosinic-polycytidylic acid [PIC]", "values": [{"measurement": "effect on tumor growth of TLR ligand alone", "setting": "[1]", "result": "none of these TLR ligands administered alone had any effect on the tumor growth"}, {"measurement": "survival percentage", "setting": "[1]", "result": 41, "unit": "%"}, {"measurement": "increase in tumor regression", "setting": "[1]", "result": "significant increase in tumor regression"}]}
{"molecule": "polyuridine [pU]", "values": [{"measurement": "survival percentage", "setting": "[1]", "result": 41, "unit": "%"}, {"measurement": "increase in tumor regression", "setting": "[1]", "result": "significant increase in tumor regression"}]}
